Patent US3971737A, “[2-Methyl-Ala^6 ]LRH” (American Home Products Corporation, priority 1975, dated 1976)
Values joined by “and” are separate entries in the source; they are usually repeats but may differ in a detail not shown here. Equal entries are not always repeated. “Also recorded” adds a separate entry of the source.

Legend:
[1] = tested on: Sprague-Dawley rats (pregnancy); settings: found by Alan Corbin (copending application Ser. No. 561,524), cited from earlier work
[2] = tested on: luteinizing hormone (LH) in the blood serum of ovariectomized rats; experiment: LH release in ovariectomized rats pretreated with estradiol and progesterone; serum LH by radioimmunoassay; type: in vivo, rat
Method: This fact was established, in vivo, by measuring the increase of LH (before and after administration of [2-methyl-Ala^6 ]LRH) in the blood serum of ovariectomized rats pretreated with estradiol and progesterone according to the procedure of Schally et al., J. Biol. Chem. 246, 7230 (1971). The LH concentration in the blood serum was determined by radioimmunoassy according to the procedure of Berson et al., Metabolism 13, 1135 (1964). The results of this test are as follows: Dose nanograms ng LH/ml Serum % Dif- (ng) Animal No. Pre Post erence ______________________________________ 10 1 404.92 932.87 […] 10 2 541.37 1062.03 96.17 10 3 441.25 1568.03 255.43 10 4 459.07 1082.72 135.85 10 5 759.11 1681.84 111.52 No. of observations 5 5 5 Mean 523.34 1265.56 145.87 Standard error 70.34 150.08 28.28 T-value 5.1586 P-value 0.0080 ______________________________________

**Q.** With CC(C)C[C@H](NC(=O)C(C)(C)NC(=O)[C@H](Cc1ccc(O)cc1)NC(=O)[C@H](CO)NC(=O)[C@H](Cc1c[nH]c2ccccc12)NC(=O)[C@H](Cc1c[nH]cn1)NC(=O)[C@@H]1CCC(=O)N1)C(=O)N[C@@H](CCCNC(=N)N)C(=O)N1CCC[C@H]1C(=O)NCC(N)=O [[2-methyl-Ala^6]LRH, L-(5-oxoprolyl)-L-histidyl-L-tryptophyl-L-seryl-L-tyrosyl-2-methylalanyl-L-leucyl-L-arginyl-L-prolylglycinamide] as the compound, how does the pregnancies prevented ([1]; 500 micrograms per day) read?
**A.** The pregnancies prevented was 100%.

**Q.** And the “claudogenic/interceptive activity (in words)” value [1]?
**A.** Its value is “active claudogenic/interceptive agent”.

**Q.** What about the “ng LH/ml Serum, Post (Mean)” value ([2]; dose 10 ng, mean of 5 ovariectomized, estradiol/progesterone-pretreated rats, after administration (pre mean 523.34), standard error 150.08) of the same compound?
**A.** The value was 1265.56 ng LH/ml.

**Q.** And the “% Difference of serum LH, pre vs post (Mean)” value ([2]; dose 10 ng, mean of 5 rats, standard error 28.28, P-value 0.0080)?
**A.** Its value is 145.87%.

**Q.** What about the “% Difference of serum LH, pre vs post (individual animals No. 1-5)” value ([2]; dose 10 ng, single animals 1 to 5 in order) of the same compound?
**A.** Its value is 255.43% and 135.85% and 111.52% and 103.38% and 96.17%.

**Q.** What about the “ng LH/ml Serum, Post (individual animals No. 1-5)” value ([2]; dose 10 ng, single animals 1 to 5 in order, after administration) of the same compound?
**A.** The value was 932.87 ng LH/ml and 1062.03 ng LH/ml and 1568.03 ng LH/ml and 1082.72 ng LH/ml and 1681.84 ng LH/ml.

**Q.** What about the “LH-releasing / LRH agonist activity (in words)” value ([2]; in vivo, ovariectomized rats pretreated with estradiol and progesterone) of the same compound?
**A.** The value was “active releaser of luteinizing hormone (LH); also recorded: active LRH agonist”.
